Results on three compounds are retold here after patent publication US20220202770A1, “COMPOSITION FOR TREATING HEPATITIS B, AND METHOD FOR EVALUATING REPLICATION ACTIVITY OF HEPATITIS B VIRUS” (priority 2016, published 2022).

Data set [1] deals with Lamivudine-resistance mutant HBV-Pol (HBV-Pol-LAMr, M204I). The data set can be described thus: Evaluation method for HBV replication activity with Lamivudine-resistance mutant HBV-Pol. The data set is classed as cell-based, hepatitis B virus; HeLa cells. The note with it: Example 9, FIG. 12B (c, d); HeLa cells, 0.020-5.000 μM, 24 hours. The source says: (§1) As described in the section of “background art”, long-term administration of conventional anti-HBV drugs made of a nucleotide/nucleoside analog such as Entecavir and Lamivudine causes the emergence of drug-resistant HBV. As a cause of the emergence of such a drug-resistant HBV, a mutation within the region of reverse transcription enzyme (RT) of HBV-Pol has been reported.
(§2) Then, mutant HBV-Pol expression vectors having M204I mutation, and L180M/T184G/S202I/M204I mutations respectively introduced therein were prepared in accordance with a conventional method and designated as HBV-P-LAMr, and HBV-P-ETVr, respectively. As the MAPKK inhibitor, Hypothemycin was used. As a negative control against a drug-resistant HBV, an existing anti-HBV drug, Entecavir, was used.
(§3) HBV replication evaluation was carried out in the same manner as in the evaluation method for HBV replication activity described in Example 1. The evaluation vector for HBV replication activity, and expression vectors of a wild type HBV-P or mutant HBV-P (HBV-P-LAMr or HBV-P-ETVr), HBc and HBx were introduced in the same ratio as in Example 2; at the same time, Hypothemycin or Entecavir was introduced in amounts of 0.000 μM, 0.020 μM, 0.039 μM, 0.078 μM, 0.156 μM, 0.313 μM, 0.625 μM, 1.250 μM, 2.500 μM or 5.000 μM. Culture was carried out under a 5% CO2 atmosphere at 37° C. […]

In data set [2] the test system is Entecavir-resistance mutant HBV-Pol (HBV-Pol-ETVr, L180M/T184G/S202I/M204I). Briefly: Evaluation method for HBV replication activity with Entecavir-resistance mutant HBV-Pol. The data set is classed as cell-based, hepatitis B virus; HeLa cells. The note with it: Example 9, FIG. 12B (e, f); HeLa cells, 0.020-5.000 μM, 24 hours.
Description: as §1, §2, §3

The test system of data set [3] is HBV DNA replication (reverse transcription of reporter pgRNA by wild type HBV-Pol). The data set can be described thus: Evaluation method for HBV replication activity: reporter-minus strand DNA quantified by real time PCR in transfected HeLa cells. The settings on record: 24 hours; for suppression of reverse transcription by wild-type HBV-Pol: Example 9, FIG. 12B (a, b), 0.020-5.000 μM. The data set is classed as cell-based, hepatitis B virus (genotype C); HeLa cells. The procedure: To HeLa cells, the evaluation vector for HBV replication activity, HBV-P expression vector, HBc expression vector and HBx expression vector were introduced in various combinations (Introduction step). Combination patterns are as described in FIG. 4A. Transfection of the HeLa cells was carried out by electroporation. DNA (10 μg) was introduced into about 1×10^6 HeLa cells in the conditions of 125 V/2.5 ms plus length by an electroporator, Nepa 21 (Nepa Gene Co., Ltd.). The ratio of HBc expression vector:HBV-P expression vector:HBx expression vector was set to be 9:3:1. If there was an expression vector not to be introduced depending on the combination, the same ratio of an empty vector (pCI) as that of the expression vector not to be introduced was introduced. The ratio of the evaluation vector for HBV replication activity and the total of other expression vectors was set to be 1: 1 (5 μg: 5 μg). If there was an expression vector not to be introduced, pCI was introduced at the ratio corresponding to that of the expression vector.
After transfection, the HeLa cells were cultured in DMEM supplemented with 2 mL of 10% FBS in the presence of 5% CO2 at 37° C. for 48 hours (Culturing step).
After culture, DNA was extracted from the HeLa cells by means of DNeasy Mini (Qiagen). As the primer, a primer pair of a forward primer consisting of the nucleotide sequence represented by SEQ ID NO: 38 and a reverse primer consisting of the nucleotide sequence represented by SEQ ID NO: 39, was used. The forward primer has the two nucleotides at the 3′ terminal, which match the two nucleotides at the 5′ terminal of the exon present on the downstream side; however, fail to match two nucleotides at the 5′ terminal of the intron. Accordingly, the forward primer functions as a primer only in the case where reporter-minus strand DNA having a reporter sequence from which the intron was removed is present, and amplification can be made by using the reporter-minus strand DNA as a template to provide a DNA fragment of 131 nucleotides.
In accordance with the evaluation method for HBV replication activity described in Example 1, an evaluation vector for HBV replication activity, HBV-P expression vector, HBc expression vector and HBx expression vector were introduced in HeLa cells. […]
To HeLa cells, an evaluation vector for HBV replication activity, and expression vectors of HBV-P, HVc and HBx were introduced in the ratio described in the evaluation method for HBV replication activity described in Example 2. […] The absorbance of the culture solution was measured at 450 nm/650 nm to evaluate the survival rates of the cells. […]

In data set [4] the test system is genomic DNA (G3PDH exon 8) of HeLa cells. Briefly: Amount of genomic DNA (G3PDH exon 8) in HeLa cells by real time PCR. The note with it: Example 3, FIG. 6B, serially diluted. The data set is classed as cell-based, human (HeLa cells). The method, then:
(§4) To HeLa cells, an evaluation vector for HBV replication activity, and expression vectors of HBV-P, HVc and HBx were introduced in the ratio described in the evaluation method for HBV replication activity described in Example 2. Thereafter, the HeLa cells were cultured in a 96-well plate containing a culture solution supplemented with a 0.25% n-butanol extract of a filamentous fungus culture, under 5% CO2 atmosphere at 37° C. Twenty-four hours later, WST-8 (Nacalai) was added to the culture solution, which was further subjected to culture for 2 hours. The absorbance of the culture solution was measured at 450 nm/650 nm to evaluate the survival rates of the cells.
(§5) After the culture solution was removed, DNA in the cell cytoplasm was recovered by a treatment with 50 μl of Buffer A (10 mM HEPES, 1.5 mM MgCl2, 10 mM KCl, 0.5 mM DTT, 0.05% NP40, pH7.9) and subjected to real time PCR performed in accordance with the method of Example 1. As the result of primary screening of 800 extracts (200 strains, 4 culture solutions), 162 extracts inhibiting 25% or more of HBV DNA replication (reverse transcription) and having a cytotoxic activity of 80% or less were selected as a primary hit.
(§6) Subsequently, 162 extracts primarily hit were serially diluted and added to an evaluation system. […]

The test system of data set [5] is mitochondrial DNA (ND5) of HeLa cells. Briefly: Amount of mitochondrial DNA (ND5) in HeLa cells by real time PCR. The data set is classed as cell-based, human (HeLa cells). The settings on record: Example 3, FIG. 6C, serially diluted. The procedure:
as §4, §5, §6

The target of data set [6] is HBV/C-Pol (hepatitis B virus polymerase, Genotype C), wild type (hepatitis B virus, Genotype C) (UniProt Q9YZR5). The data set can be described thus: cell-based or functional assay.

For `C=C1[C@H](CO)[C@@H](O)C[C@@H]1n1cnc2c(=O)[nH]c(N)nc21` [Entecavir], the “suppression of reverse transcription activity of Lamivudine-resistance mutant HBV-Pol” value in data set [1] was “weak”. In addition, in data set [2], the “suppression of reverse transcription activity of Entecavir-resistance mutant HBV-Pol” value is given as “not substantially suppressed”. In addition, the “amount of the reporter-minus strand DNA (replication of HBV DNA)” value in data set [3] (Example 2, FIG. 5, 0.04-5.00 μM/well) is “decreased in an Entecavir-concentration depending manner”. Further, in data set [3], the “suppression of reverse transcription by wild-type HBV-Pol” value is given as “suppressed reverse transcription by a wild-type HBV-Pol in a concentration-dependent manner”.

For Hypothemycin, the “suppression of reverse transcription activity of Lamivudine-resistance mutant HBV-Pol” value in data set [1] was “all in a concentration-dependent manner”. For the same compound, in data set [2], the “suppression of reverse transcription activity of Entecavir-resistance mutant HBV-Pol” value is “all in a concentration-dependent manner”. Further, in data set [3] (Example 3, FIG. 6A, serially diluted), the “replication of HBV DNA” value is “inhibited replication of HBV DNA in a concentration-dependent manner”. Moreover, the “suppression of reverse transcription by wild-type HBV-Pol” value in data set [3] is “all in a concentration-dependent manner”. Besides, the “amount of genomic DNA (G3PDH exon 8)” value in data set [4] is recorded as “not affected”. The “amount of mitochondrial DNA (ND5)” value in data set [5] is on record as “not affected”.

Consider “constitutively active human MEK1 (S218E/S222E) (from UniProt Q02750 1-393) (enzyme)”, for which, in data set [6], the HBV replication (reporter-minus strand DNA by real time PCR) in HeLa cells under forced expression of MEK1 came out at 10 fold.
